Tests used:
PfATC [1] = target: T1, PfATC (Plasmodium falciparum, UniProt A0A5K1K910); experiment: Differential scanning fluorimetry (DSF); assay type: binding; conditions: PfATC 5 µM, read-out: ΔTM of PfATC (thermal stabilization)
Source text: (§1) 464Data collection, processing and refinement. All the diffraction data sets were collected using
(§2) 465synchrotron radiation wavelength 1.033200 Å at DESY beamline P11. The data collected for
(§3) 466PfATC crystals grown in presence of fragments and compounds were processed using XDSAPP 25
(§4) 467and Aimless 26, and the structures were solved and initially refined using the DIMPLE pipeline
(§5) 468within CCP4 suite 26 with coordinates of the unliganded PfATC (5ILQ) as a starting model. The
(§6) 469final refinement included manual rebuilding in coot 27 and Refmac5 28. The resulting crystal
(§7) 470structures were deposited in PDB 29. Data collection and processing statistics are show in Table
(§8) 472Differential Scanning Fluorimetry (DSF). The purified PfATC was incubate with 5000 × Sypro
(§9) 473Orange (Invitrogen) and dilution it to 1:400 stock of dye in assay buffer (50 mM Tris-HCl pH =8.0
(§10) 474and 300 mM NaCl). Each reaction consisted of 2 µL compound (10 mM stock in 100% DMSO), 5
(§11) 475µL PfATC-Sypro orange mixture and 43 µL assay buffer. Final protein assay concentration was
(§12) 4765µM, final DMSO concentration war […]. After incubation for 20 min at 20 ℃, the samples
(§13) 477were hated from 25℃ to 95℃ at a rate of 0.5 ℃ min -1. The inflection points of the melting curves
(§14) 478were determined using BioRad CSV 96 control software and processed & plotted by GraphPad.
(§15) 479Microscale Thermophoresis (MST). […]

PfATC [2] = target: T1, PfATC; experiment: Microscale thermophoresis (MST); assay type: binding; conditions: n = 3
Source text: as §1, §2, §3, §4, §5, §6, §7, §8, §9, §10, §11, §12, §13, §14, §15

[3] = Insolubility interpreted from deviation of the MST curve; assay type: physicochemical; conditions: pH 8, aqueous with cosolvent or surfactant or cyclodextrin, kinetic from dmso stock, MST buffer, read-out: concentration in excess of which the compound is insoluble
Procedure: We also modified the amino group and generated a new scaffold, suspecting that varying the R1, R2, and R3 groups would generate a series of compounds with optimized binding and improved inhibition (BDAs, Supporting Information Table 1). We evaluated the BDA series in an in vitro activity assay against malarial and human ATC (Figure 3A, Supporting Information Table 1). […] Significant deviations from the sigmoidal distribution of the MST curve are present at concentrations higher than 10 μM, which we have interpreted as indicative of BDA-04 insolubility at concentration in excess of 10 μM. To characterize the mechanism of inhibition by BDAs, enzyme activity assays were performed using BDA-04 as an exemplar (Figure 3F,G).
as §1, §2, §3, §4, §5
469final refinement included manual rebuilding in coot 27 and Refmac5 28. The resulting crystal […]
478were determined using BioRad CSV 96 control software and processed & plotted by GraphPad. […]

T1 sequence (A0A5K1K910 entry or part of it): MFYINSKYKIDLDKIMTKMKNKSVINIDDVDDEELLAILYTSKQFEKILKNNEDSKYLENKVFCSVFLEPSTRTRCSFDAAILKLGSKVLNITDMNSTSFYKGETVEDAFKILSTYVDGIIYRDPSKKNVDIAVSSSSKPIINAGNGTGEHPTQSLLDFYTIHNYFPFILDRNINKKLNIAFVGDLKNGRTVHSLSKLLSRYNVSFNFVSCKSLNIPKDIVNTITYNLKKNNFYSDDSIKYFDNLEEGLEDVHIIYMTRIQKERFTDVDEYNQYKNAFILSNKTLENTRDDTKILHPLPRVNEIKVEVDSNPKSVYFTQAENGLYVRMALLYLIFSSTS

For CC(C)(C)OC(=O)Nc1sc(-c2ccccc2)cc1C(=O)NCCc1ccccc1 [BDA-04], the ΔTm (PfATC [1]) was 22.8 °C, the Kd (PfATC [2]) was 0.0663 µM and the solubility at 10 min [3] was > 10 µM.
